Consider two compounds from paper PMC5626031, “Differential inhibition of adenylylated and deadenylylated forms of M. tuberculosis glutamine synthetase as a drug discovery platform” (PLoS ONE, 2017).

The target in experiment [1] is T1, deadenylylated MtbGS (Mycobacterium tuberculosis, UniProt P9WN39).
T1 construct: made in house; host or cells: E. coli YMC11E with pTBSK
Briefly: biochemical. Set-up: species or system M. tuberculosis.

Experiment [2] has as its system M. tuberculosis. To be noted: both in vitro and in vivo; cited from earlier work.
Experiment [3] deals with T2, adenylylated MtbGS (Mycobacterium tuberculosis, UniProt P9WN39).
T2 construct: made in house; host or cells: E. coli YMC11E(DE3) with pTBSK and pTBglnE
Briefly: biochemical. The format is biochemical, M. tuberculosis.

Experiment [4] concerns M.tb (Beijing220) clinical isolate. To be noted: cited from earlier work.
In experiment [5] the test system is M.tb H37Rv reference strain (ATCC 25618). Set-up: method as in PMID 9145860. To be noted: approximately 10x higher than the minimal inhibitory concentrations; cited from earlier work.

T1 sequence (P9WN39 2-478 limits assumed): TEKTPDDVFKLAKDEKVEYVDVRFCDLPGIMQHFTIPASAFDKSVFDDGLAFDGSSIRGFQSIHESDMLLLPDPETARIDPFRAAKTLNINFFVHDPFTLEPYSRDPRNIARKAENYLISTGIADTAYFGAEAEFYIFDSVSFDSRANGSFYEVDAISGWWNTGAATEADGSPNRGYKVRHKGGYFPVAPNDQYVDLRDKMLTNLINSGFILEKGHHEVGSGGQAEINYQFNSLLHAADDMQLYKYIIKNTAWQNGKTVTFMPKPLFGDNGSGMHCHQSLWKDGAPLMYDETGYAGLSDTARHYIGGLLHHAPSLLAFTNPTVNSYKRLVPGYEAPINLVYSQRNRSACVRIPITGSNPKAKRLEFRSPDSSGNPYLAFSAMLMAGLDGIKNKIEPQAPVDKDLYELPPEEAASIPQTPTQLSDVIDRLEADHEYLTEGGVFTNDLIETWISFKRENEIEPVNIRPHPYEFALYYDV
T2 sequence (P9WN39 2-478 limits assumed): as above

`CS(=N)(=O)CC[C@H](N)C(=O)O` (stereo partly drawn) [MSO, L-methionine-S,R-sulphoximine, reference compound]: in experiment [1], the “Deadenylated Mtb GS (% inhibition) AVG” value turned out to be 100%, the “Deadenylated Mtb GS (% inhibition) Screen 1” value amounted to 100%, the “Deadenylated Mtb GS (% inhibition) Screen 2” value was determined as 100% and the “Deadenylated Mtb GS (% inhibition) Screen 3” value is recorded as 99%. Moreover, in experiment [1], the “Deadenylated Mtb GS (% inhibition) Screen 4” value is reported as 100% and half-maximal inhibition (IC50) was put at 1600 nM. Further, the “Growth of M. tuberculosis” value in experiment [2] was “inhibits growth”. For the same compound, in experiment [3], the “Adenylated Mtb GS (% inhibition) AVG” value stood at 99%, the “Adenylated Mtb GS (% inhibition) Screen 1” value amounted to 100%, the “Adenylated Mtb GS (% inhibition) Screen 2” value is recorded as 100% and the “Adenylated Mtb GS (% inhibition) Screen 3” value stood at 96%. In experiment [3], the “Adenylated Mtb GS (% inhibition) Screen 4” value came to 100%. Further, the half-maximal inhibitory concentration (IC50) (commonly the concentration that gives 50% inhibition) in experiment [3] (read-out: IC50, adenylylated MtbGS) came out at 160 nM.

As to `CO[C@H]1/C=C/O[C@@]2(C)Oc3c(C)c(O)c4c(O)c(c(/C=N/N5CCN(C)CC5)c(O)c4c3C2=O)NC(=O)/C(C)=C\C=C\[C@H](C)[C@H](O)[C@@H](C)[C@@H](O)[C@@H](C)[C@H](OC(C)=O)[C@@H]1C` [rifampicin], the “Susceptibility of the Beijing220 clinical isolate” value in experiment [4] is listed as “resistant”. In addition, in experiment [5], the “Breakpoint concentration to which the H37Rv strain was sensitive” value was 2.0 µg/mL.
